# Laboratory results as given in ChEMBL document CHEMBL1201862, “PubChem BioAssay data set” (2004).
# The source made the active and inactive calls.
# Tests used:
# [1] = cells; type: functional, cell-based
# [2] = cells; type: functional, cell-based; remark: listed apart in the source
# [3] = target: T1, Trace amine-associated receptor 1 (Homo sapiens, UniProt Q96RJ0); assay: Counterscreen for agonists of the human trace amine associated receptor 1 (hTAAR1): Fluorescence-based cell-based high throughput dose response assay to identify hTAAR1 agonist that also desensitize TAAR1 receptor response.; type: functional
# T1 sequence (Q96RJ0 whole entry): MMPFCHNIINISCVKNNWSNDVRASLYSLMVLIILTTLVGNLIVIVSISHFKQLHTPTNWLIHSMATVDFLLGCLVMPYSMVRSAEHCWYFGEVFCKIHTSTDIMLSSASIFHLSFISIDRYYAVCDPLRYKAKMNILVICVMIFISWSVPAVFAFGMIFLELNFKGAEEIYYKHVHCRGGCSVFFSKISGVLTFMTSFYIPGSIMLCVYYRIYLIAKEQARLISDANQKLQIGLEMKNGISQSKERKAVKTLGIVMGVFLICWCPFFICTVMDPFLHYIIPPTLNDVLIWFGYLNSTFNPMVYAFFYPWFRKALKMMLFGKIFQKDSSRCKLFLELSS
# [4] = target: T1, Trace amine-associated receptor 1; assay: Fluorescence-based cell-based high throughput dose response assay to identify agonists of the human trace amine associated receptor 1 (TAAR1).; type: functional
# [5] = target: T2, Methionyl-tRNA synthetase, putative (Trypanosoma brucei brucei, UniProt Q38C91); type: functional, Trypanosoma brucei brucei strain 927/4 GUTat10.1
# T2 sequence (Q38C91 whole entry): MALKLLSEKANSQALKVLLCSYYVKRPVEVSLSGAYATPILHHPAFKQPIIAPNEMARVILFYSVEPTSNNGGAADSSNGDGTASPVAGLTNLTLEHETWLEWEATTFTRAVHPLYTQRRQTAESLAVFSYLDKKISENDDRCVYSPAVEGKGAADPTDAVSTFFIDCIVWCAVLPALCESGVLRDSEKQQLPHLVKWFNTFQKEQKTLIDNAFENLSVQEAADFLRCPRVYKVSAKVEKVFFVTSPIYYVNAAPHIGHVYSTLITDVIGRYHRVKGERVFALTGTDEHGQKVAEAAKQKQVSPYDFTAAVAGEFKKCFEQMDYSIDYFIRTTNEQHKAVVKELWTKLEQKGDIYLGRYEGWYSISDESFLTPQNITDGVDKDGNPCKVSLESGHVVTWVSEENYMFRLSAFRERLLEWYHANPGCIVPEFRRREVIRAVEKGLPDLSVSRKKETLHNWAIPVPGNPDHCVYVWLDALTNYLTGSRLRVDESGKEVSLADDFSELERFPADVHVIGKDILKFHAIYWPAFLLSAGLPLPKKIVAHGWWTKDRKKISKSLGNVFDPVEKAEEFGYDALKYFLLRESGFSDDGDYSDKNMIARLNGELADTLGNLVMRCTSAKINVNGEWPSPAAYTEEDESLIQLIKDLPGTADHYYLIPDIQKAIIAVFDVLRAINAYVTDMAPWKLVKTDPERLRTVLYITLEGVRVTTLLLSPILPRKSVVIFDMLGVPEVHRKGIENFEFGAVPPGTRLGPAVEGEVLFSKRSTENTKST
# [6] = NIH3T3 cell viability loss – ATP luminescence, mouse fibroblasts, counter-screen, dose response (AID 2010); type: functional, cell-based;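 also: cells exposed to compound for about 90 hours before reading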
# [7] = Counterscreen for inhibitors of Trypanosoma brucei methionyl tRNA synthetase (MetRS): Luminescence-based cell-based high throughput dose response assay to identify compounds that are cytotoxic to Jurkat human T lymphocyte cells.; type: functional
# [8] = Trypanosoma cruzi growth suppression in host cells – NIH3T3 host cells, beta-gal luminescence, confirmation (AID 2044); type: functional, cell-based;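 also: intracellular parasites grown in NIH/3T3 mouse fibroblasts as host cells; luminescent beta-galactosidase reporter signal from transgenic T. cruzi replicating inside host cells; inhibitors lower the luminescence signal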
# [9] = target: T2, Methionyl-tRNA synthetase, putative; type: functional, Trypanosoma brucei brucei strain 927/4 GUTat10.1; remark: listed apart in the source
# [10] = cells
# [11] = target: Mitogen-activated protein kinase 10 (Homo sapiens, UniProt P53779); assay: Dose response biochemical screening assay for inhibitors of c-Jun N-Terminal Kinase 3 (JNK3). [Related pubchem assays: 746 ]
# [12] = target: Major prion protein (Homo sapiens, UniProt P04156); type: functional, cell-based
# [13] = Luminescence-based cell-based high throughput dose response assay to identify activators of the DAF-12 from the parasite S. stercoralis (ssDAF-12).; type: functional
# [14] = target: T3, Protein RecA (Mycobacterium tuberculosis, UniProt P9WHJ3); assay: Fluorescence Cell-Free Homogeneous Dose Retest to Identify Inhibitors of RecA-Intein Splicing Activity. [Related pubchem assays (depositor defined):AID2097, AID2223, AID489010, AID492950]; type: functional
# T3 sequence (P9WHJ3 whole entry): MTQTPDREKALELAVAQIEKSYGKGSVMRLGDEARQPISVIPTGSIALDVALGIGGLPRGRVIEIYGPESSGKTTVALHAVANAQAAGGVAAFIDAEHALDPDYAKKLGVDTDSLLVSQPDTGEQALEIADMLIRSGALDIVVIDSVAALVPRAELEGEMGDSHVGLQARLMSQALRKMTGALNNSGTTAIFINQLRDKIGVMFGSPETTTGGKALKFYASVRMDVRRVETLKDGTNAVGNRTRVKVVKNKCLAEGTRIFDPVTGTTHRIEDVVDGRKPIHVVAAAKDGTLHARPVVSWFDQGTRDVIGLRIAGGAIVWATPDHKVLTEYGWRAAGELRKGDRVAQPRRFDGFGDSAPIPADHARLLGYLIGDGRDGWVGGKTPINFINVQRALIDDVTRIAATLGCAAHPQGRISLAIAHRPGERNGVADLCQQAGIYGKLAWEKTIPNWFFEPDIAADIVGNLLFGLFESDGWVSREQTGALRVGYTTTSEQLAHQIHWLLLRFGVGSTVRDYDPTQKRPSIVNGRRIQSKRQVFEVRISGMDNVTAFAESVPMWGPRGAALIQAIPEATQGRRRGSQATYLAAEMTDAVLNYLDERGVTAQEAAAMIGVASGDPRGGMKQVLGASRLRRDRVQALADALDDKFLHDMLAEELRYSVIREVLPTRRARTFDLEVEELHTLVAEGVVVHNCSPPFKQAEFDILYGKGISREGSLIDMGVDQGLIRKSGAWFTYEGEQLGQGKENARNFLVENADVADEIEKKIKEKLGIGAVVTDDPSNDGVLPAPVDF
# [15] = target: T4, Replicative DNA helicase DnaB (Mycobacterium tuberculosis, UniProt P9WMR3); assay: DnaB intein splicing inhibitors, dose response, biochemical, cell-free fluorescence (AID 449749); type: functional
# T4 sequence (P9WMR3 whole entry): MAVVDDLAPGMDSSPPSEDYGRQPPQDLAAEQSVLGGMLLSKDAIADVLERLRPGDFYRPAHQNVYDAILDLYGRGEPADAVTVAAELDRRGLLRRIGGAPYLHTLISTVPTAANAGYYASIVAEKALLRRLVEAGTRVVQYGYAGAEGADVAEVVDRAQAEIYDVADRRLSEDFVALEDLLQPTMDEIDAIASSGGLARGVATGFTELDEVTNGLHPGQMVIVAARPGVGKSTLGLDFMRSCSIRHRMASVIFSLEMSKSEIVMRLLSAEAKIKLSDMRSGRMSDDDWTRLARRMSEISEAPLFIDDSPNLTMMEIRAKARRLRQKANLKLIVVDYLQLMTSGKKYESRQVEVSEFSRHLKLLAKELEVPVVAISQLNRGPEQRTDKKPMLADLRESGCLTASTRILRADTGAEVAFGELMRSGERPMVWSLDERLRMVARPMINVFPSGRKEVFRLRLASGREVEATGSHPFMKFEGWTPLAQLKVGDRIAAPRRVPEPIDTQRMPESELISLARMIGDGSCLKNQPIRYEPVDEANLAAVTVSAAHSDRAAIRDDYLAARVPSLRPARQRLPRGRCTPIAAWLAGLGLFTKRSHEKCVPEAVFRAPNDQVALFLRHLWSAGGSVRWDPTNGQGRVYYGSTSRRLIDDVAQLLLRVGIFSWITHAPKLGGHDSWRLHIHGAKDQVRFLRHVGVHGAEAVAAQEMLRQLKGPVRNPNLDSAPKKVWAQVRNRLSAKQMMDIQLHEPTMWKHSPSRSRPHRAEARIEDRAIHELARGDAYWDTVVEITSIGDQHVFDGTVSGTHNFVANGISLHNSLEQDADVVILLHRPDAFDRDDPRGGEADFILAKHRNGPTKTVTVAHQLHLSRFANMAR
# [16] = system: HEK293; assay: inhibition of NOD1-driven NF-kB reporter – cell-based, luminescence, uHTS, primary screen (AID 1578); type: functional; settings: Homo sapiens
# [17] = system: HEK293; assay: cells; type: functional, cell-based; settings: Homo sapiens
# [18] = target: Nucleotide-binding oligomerization domain-containing protein 2 (Homo sapiens, UniProt Q9HC29); assay: inhibition of NOD2-driven NF-kB reporter – cell-based, luminescence, uHTS, HEK293 (AID 1566); type: functional
# [19] = system: HEK293; assay: cells; type: functional, cell-based; settings: Homo sapiens; remark: listed apart in the source
# [20] = system: HEK293; assay: cells; type: functional, cell-based; settings: Homo sapiens; remark: listed apart in the source
# [21] = system: HEK293; assay: NOD2 signaling inhibitors in MDP-stimulated cells, cell-based, uHTS, luminescence (AID 2001); type: functional; settings: Homo sapiens
# [22] = reduction of Shn3 3'UTR-driven luciferase in osteoblasts – cell-based, Clone20 osteoblasts, firefly luciferase, cherry-picked, dose response (AID 624132); type: functional;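 also: firefly luciferase luminescence from reporter carrying the Shn3 3'UTR in osteoblasts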
# [23] = target: Melanocortin receptor 4 (Homo sapiens, UniProt P32245); type: functional, cell-based;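 also: Cell-based assay with luminescence read-out, confirmatory dose-response testing for agonist activity of biased ligands at MC4R; human U2OS cells with tagged receptor and beta-arrestin; potency of agonists that increase receptor coupling to beta-arrestin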
# [24] = general cell-killing toxicity readout – plate reader, dry powder samples, cytotoxicity control for PAX8 inhibitor project, dose response (AID 743021); type: functional, cell-based
# [25] = non-specific 3'UTR reporter inhibition in Clone20-Shn3RL – cell-based, Renilla luciferase, cherry-picked, counter-screen for Shn3 inhibitor project, dose response (AID 624133); type: functional
# [26] = target: Paired box protein Pax-8 (Homo sapiens, UniProt Q06710); assay: PAX8 transcriptional activity inhibition in RMG-I – RMG-I cells, luciferase, cherry-pick, dose response (AID 687027); type: functional, cell-based;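 also: luciferase reporter driven by Pax8 target thyroperoxidase promoter measured by SteadyGlo luminescence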
# [27] = reduced cellular PGC1a acetyl-lysine signal – cell-based, cherry-picked samples, dose response (AID 720514); type: functional;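 also: potency may reflect raised or lowered acetylation signal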
# [28] = loss of viability in HepG2 cells – cell-based, CellTiter-Glo, cherry-picked, cytotoxicity control for Shn3 inhibitor project, dose response (AID 624134); type: functional
# [29] = target: Adenosylmethionine-8-amino-7-oxononanoate aminotransferase (Mycobacterium tuberculosis, UniProt P9WQ81); assay: Mycobacterium tuberculosis BioA enzyme inhibitor Measured in Biochemical System Using Plate Reader - 2163-02_Inhibitor_Dose_CherryPick_Activity.; type: functional, Mycobacterium tuberculosis UT205
# [30] = target: Fructose-bisphosphate aldolase (Mycobacterium tuberculosis, UniProt P9WQA3); assay: Fluorescence-based biochemical high throughput dose response assay for inhibitors of the fructose-bisphosphate aldolase (FBA) of M. tuberculosis.; type: functional
# [31] = target: Aryl hydrocarbon receptor (Homo sapiens, UniProt P35869); settings: Potency;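 also: confirmatory quantitative high-throughput screen measuring activation of the AhR signaling pathway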
# Sequence of Aryl hydrocarbon receptor (P35869 whole entry): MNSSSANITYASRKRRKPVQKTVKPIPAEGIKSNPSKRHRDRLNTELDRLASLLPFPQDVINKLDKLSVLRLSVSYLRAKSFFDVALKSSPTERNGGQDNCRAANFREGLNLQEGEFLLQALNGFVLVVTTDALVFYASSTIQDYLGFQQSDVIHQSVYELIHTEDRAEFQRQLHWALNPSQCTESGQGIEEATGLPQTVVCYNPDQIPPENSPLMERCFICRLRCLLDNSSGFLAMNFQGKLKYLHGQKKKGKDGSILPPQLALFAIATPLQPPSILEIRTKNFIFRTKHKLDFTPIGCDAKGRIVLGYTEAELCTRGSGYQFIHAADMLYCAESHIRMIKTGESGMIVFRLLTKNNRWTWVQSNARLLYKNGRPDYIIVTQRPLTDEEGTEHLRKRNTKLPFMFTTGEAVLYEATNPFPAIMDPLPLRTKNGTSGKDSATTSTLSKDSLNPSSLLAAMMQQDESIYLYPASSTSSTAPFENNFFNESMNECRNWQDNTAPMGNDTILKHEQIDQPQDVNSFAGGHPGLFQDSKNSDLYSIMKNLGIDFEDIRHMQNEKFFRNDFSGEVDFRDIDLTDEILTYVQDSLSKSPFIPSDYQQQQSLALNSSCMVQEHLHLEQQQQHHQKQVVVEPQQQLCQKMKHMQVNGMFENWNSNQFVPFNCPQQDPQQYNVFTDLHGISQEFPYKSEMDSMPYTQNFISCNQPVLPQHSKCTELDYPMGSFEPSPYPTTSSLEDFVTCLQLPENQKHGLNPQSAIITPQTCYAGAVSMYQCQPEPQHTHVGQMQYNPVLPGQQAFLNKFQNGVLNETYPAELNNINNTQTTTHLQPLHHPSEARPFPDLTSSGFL
# Sequence of Adenosylmethionine-8-amino-7-oxononanoate aminotransferase (P9WQ81 whole entry): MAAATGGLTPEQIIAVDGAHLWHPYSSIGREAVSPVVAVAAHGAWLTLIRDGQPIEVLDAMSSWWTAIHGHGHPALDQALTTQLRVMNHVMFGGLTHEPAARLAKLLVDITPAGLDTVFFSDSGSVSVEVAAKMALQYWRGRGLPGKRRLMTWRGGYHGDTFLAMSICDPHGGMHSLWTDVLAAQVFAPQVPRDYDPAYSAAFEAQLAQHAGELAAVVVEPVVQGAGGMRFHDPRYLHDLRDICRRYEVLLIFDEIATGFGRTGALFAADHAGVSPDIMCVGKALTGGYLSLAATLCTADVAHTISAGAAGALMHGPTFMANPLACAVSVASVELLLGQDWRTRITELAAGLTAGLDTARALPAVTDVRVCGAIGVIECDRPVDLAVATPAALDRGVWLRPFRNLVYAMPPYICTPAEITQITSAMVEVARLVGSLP
# Sequence of Fructose-bisphosphate aldolase (P9WQA3 whole entry): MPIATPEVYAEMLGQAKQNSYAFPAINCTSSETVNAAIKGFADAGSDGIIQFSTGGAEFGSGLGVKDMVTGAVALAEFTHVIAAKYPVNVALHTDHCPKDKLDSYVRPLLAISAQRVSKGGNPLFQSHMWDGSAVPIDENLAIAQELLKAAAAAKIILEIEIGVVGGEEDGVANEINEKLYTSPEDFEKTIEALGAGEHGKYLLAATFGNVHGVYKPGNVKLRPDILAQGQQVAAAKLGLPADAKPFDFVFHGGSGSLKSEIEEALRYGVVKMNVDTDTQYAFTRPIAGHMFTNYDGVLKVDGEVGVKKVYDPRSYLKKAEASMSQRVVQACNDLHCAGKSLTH
# Sequence of Paired box protein Pax-8 (Q06710 whole entry): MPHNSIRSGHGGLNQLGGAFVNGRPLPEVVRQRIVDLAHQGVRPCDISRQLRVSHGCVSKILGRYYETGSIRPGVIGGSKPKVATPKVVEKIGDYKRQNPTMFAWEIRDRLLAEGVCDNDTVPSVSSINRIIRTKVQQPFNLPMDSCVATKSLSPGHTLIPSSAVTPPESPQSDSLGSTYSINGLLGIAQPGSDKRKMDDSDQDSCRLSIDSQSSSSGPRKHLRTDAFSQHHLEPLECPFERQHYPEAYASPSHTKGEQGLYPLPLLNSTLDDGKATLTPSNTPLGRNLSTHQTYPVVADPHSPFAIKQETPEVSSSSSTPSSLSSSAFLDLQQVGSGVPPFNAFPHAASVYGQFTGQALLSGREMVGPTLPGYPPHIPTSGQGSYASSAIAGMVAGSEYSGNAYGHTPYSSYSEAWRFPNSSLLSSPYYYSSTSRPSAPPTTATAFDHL
# Sequence of Mitogen-activated protein kinase 10 (P53779 whole entry): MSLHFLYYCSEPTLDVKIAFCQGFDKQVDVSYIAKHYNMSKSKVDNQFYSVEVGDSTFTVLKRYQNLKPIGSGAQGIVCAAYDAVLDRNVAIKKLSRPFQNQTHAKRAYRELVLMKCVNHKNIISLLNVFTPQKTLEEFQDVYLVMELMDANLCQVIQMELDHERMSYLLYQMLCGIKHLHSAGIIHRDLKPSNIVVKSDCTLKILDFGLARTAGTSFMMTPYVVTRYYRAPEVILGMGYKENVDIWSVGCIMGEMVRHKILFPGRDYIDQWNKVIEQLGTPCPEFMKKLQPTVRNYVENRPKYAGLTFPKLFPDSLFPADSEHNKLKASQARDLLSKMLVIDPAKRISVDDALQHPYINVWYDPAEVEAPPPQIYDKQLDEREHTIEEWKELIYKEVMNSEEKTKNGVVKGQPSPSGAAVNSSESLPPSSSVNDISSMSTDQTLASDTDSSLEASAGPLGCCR
# Sequence of Melanocortin receptor 4 (P32245 whole entry): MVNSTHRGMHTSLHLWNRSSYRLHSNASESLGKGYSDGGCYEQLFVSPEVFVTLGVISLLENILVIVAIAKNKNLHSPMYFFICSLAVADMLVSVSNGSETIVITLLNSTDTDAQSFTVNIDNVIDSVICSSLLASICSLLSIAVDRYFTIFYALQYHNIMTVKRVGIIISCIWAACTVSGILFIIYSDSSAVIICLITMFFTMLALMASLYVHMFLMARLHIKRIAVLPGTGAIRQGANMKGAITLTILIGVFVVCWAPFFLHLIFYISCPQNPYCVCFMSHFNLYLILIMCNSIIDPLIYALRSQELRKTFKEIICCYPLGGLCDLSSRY
# Sequence of Nucleotide-binding oligomerization domain-containing protein 2 (Q9HC29 whole entry, the tested form may be a part): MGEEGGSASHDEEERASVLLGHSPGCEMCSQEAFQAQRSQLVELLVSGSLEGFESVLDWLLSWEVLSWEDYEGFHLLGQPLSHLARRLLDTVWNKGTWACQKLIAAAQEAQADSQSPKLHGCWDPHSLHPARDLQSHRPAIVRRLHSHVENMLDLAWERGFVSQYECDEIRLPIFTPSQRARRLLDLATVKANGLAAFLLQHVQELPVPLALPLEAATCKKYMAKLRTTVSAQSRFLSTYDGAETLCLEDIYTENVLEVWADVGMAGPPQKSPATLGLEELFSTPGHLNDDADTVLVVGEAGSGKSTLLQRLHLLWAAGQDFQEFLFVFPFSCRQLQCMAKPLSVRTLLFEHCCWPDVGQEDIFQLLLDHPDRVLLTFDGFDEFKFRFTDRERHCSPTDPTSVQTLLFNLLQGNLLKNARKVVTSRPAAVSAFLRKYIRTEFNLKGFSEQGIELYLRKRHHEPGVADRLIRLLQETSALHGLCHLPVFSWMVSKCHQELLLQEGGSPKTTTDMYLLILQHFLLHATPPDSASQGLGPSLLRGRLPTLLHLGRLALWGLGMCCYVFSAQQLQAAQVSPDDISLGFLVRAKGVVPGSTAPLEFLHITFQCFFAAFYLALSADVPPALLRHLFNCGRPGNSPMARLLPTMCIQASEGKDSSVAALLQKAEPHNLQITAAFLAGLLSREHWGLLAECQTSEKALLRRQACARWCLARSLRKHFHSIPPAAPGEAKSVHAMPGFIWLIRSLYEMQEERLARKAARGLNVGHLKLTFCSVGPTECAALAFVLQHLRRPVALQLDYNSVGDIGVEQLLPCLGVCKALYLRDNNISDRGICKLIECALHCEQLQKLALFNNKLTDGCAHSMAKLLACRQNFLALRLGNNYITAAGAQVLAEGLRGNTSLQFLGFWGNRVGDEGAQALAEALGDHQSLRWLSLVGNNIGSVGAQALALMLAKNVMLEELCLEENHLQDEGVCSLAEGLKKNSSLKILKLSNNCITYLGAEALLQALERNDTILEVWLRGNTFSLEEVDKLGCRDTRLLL
smiles,measurement,setting,value
CC1=C(NCCc2ccccc2)CCC1=O,IC50,[1],> 29.9 µM (inactive)
same,EC50,[2],> 29.9 µM (inactive)
same,IC50,[3],5.79 µM (active)
same,EC50,[4],1.16 µM (active)
O=C(CCNS(=O)(=O)c1ccc(Br)s1)Nc1ccc(Cl)cc1,IC50,[5],1.85 µM (active)
same,EC50,[6],> 60 µM (inconclusive)
same,IC50,[7],83.3 µM (inactive)
same,EC50,[8],3.44 µM (active)
same,IC50,[9],3.53 µM (active)
CSCCC(Nc1ncnc2ccc(Br)cc12)C(=O)O (configuration not stated),IC50,[10],> 138 µM (inactive)
same,IC50,[11],45 µM (not active)
same,IC50,[12],1.91 µM (active)
COc1ccc2c(C)cc(SCC(=O)c3ccc4c(c3)OCO4)nc2c1,IC50,[13],> 67.5 µM (inactive)
same,EC50,[6],> 60 µM (not active)
same,EC50,[8],1.53 µM (active)
S=C(NCCSCc1ccc(Cl)cc1)Nc1ccccc1,IC50,[5],11.7 µM (inactive)
same,IC50,[7],83.3 µM (inactive)
same,IC50,[9],8.52 µM (active)
Cc1cc(C(=O)CCl)c(C)n1CCc1ccccc1,EC50,[14],24.4 µM (active)
same,AC50,[15],16.9 µM (active)
same,IC50,[1],> 29.9 µM (inactive)
same,EC50,[2],> 29.9 µM (inactive)
same,EC50,[16],13.1 µM (active)
same,IC50,[17],> 20 µM (inactive)
same,IC50,[3],9.06 µM (active)
same,EC50,[18],> 20 µM (inactive)
same,EC50,[4],1.86 µM (active)
same,IC50,[19],18 µM (active)
same,IC50,[20],5.94 µM (active)
same,IC50,[21],13.4 µM (inactive)
CCN1CCN(Cc2ccc(NC(=O)c3cc(NC(=O)c4cncc(-c5ccc(C#N)cc5)c4)cc(OC)c3)cc2C(F)(F)F)CC1,AC50,[22],3.36 µM (active)
same,EC50,[23],> 89.2 µM (inactive)
same,AC50,[24],48.2 µM (active)
same,AC50,[25],7.18 µM (active)
same,AC50,[26],7.76 µM (active)
same,AC50,[27],6.66 µM (active)
same,AC50,[28],8.15 µM (active)
O=C(Cc1ccccc1)N1CC[C@@H]2[C@H]1c1cc(Br)ccc1N[C@@H]2CO,AC50,[29],2.74 µM (active)
COc1ccc(OC)c2c1C(=O)CC2C (configuration not stated),IC50,[30],2.23 µM (active)
CCNC(=O)[C@H]1[C@H](CO)[C@H]2Cn3c(ccc(-c4cccc(F)c4)c3=O)[C@H]2N1C(=O)Cc1cccnc1,AC50,[29],17 µM (active)
O=C(Nc1ccccc1)Nc1cnns1 [THIDIAZURON],AC50,[31],50.1 µM (inconclusive)
"O=P(OCC(Br)CBr)(OCC(Br)CBr)OCC(Br)CBr (configuration not stated) [TRIS(2,3-DIBROMOPROPYL)PHOSPHATE]",AC50,[31],56.2 µM (inconclusive)
